# Assays:
# [1] = target: T1, LINE1 reverse transcriptase (Homo sapiens, UniProt O00370); assay: Stable artificial-intron Cis LINE1 reporter assay; format: cell-based; set-up: host or cells: HeLa Tet-On 3G; details: stable HeLa Tet-On 3G L1 reporter cells, doxycycline 500 ng/mL, 72 h; Firefly Luciferase activity
# Experimental: Exemplary compounds were tested for ability to inhibit LINE1 reverse transcriptase using a stable artificial-intron Cis LINE1 reporter assay. Assay procedures and results are described below.
# A stable HeLa Tet-On 3G (Takara, cat no 631183) cell line expressing a bi-directional inducible LINE1 construct was generated as described in Xie, Y. et al. “Cell division promotes efficient retrotransposition in a stable L1 reporter cell line,” Mobile DNA (2013) 4:10. Single cell clones were screened for high Luciferase expression and the highest expression Firefly expressing clone was chosen for compound testing.
# Test compounds were serially diluted in DMSO and spotted in 96-well plates. Subsequently the HeLa L1 artificial-intron reporter cells were plated into the compound-containing wells (8,000 cells/well), and the cells were induced for reporter expression with doxycycline (Sigma cat no D9891) at a final concentration of 500 ng/mL. Luminescence was measured 72 h after plating using the Dual-Glo Luciferase Assay System (Promega cat no E2940) following the manufacturer's instructions. The Firefly Luciferase activity was used to report LINE1 activity.
# [2] = target: T1, LINE1 reverse transcriptase; assay: Transient artificial-intron Cis LINE1 reporter assay; format: cell-based; details: HEK 293 cells, transient transfection; ratio FLuc/RLuc reports LINE1 activity
# Experimental: The following compound (hereinafter “Test Compound”) was tested for ability to inhibit LINE1 reverse transcriptase using a transient artificial-intron Cis LINE1 reporter assay:
# Additional exemplary compounds were also tested for ability to inhibit LINE1 reverse transcriptase using a transient artificial-intron Cis LINE1 reporter assay. Assay procedures and results are described below.
# Intron-disrupted Firefly luciferase (FLuc) expression cassettes were generated as described by Xie, Y. et al. “Characterization of L1 retrotransposition with high-throughput dual-luciferase assays,” Nucleic Acid Res. (2011) Vol. 39, No. 3, e16. In addition, the plasmid contained an intact Renilla luciferase (RLuc) expression cassette on the vector backbone, in order to normalize transfection efficiency and measure potential cell toxicity.
# HEK 293 cells were seeded in 96-well plates at 1,000 cells/well in 55 μL and grown for 24 hours. Cells were transfected with FuGeneHD (Promega) following the manufacturer's protocol. Each well received 0.133 ng plasmid, 0.4 μL FuGeneHD reagent, and 4.5 μL GlutaMAX-I-supplemented Opti-MEM I reduced-serum medium (Invitrogen). Cells were simultaneously treated with test compound serially diluted starting at 100 μM in a 3-fold dilution dose response.
# Luminescence was measured using the Dual-Glo Luciferase Assay System (Promega) following the manufacturer's instructions. The ratio between FLuc and RLuc gene expression was used to report LINE1 activity.
# T1 sequence (O00370 whole entry, looked up): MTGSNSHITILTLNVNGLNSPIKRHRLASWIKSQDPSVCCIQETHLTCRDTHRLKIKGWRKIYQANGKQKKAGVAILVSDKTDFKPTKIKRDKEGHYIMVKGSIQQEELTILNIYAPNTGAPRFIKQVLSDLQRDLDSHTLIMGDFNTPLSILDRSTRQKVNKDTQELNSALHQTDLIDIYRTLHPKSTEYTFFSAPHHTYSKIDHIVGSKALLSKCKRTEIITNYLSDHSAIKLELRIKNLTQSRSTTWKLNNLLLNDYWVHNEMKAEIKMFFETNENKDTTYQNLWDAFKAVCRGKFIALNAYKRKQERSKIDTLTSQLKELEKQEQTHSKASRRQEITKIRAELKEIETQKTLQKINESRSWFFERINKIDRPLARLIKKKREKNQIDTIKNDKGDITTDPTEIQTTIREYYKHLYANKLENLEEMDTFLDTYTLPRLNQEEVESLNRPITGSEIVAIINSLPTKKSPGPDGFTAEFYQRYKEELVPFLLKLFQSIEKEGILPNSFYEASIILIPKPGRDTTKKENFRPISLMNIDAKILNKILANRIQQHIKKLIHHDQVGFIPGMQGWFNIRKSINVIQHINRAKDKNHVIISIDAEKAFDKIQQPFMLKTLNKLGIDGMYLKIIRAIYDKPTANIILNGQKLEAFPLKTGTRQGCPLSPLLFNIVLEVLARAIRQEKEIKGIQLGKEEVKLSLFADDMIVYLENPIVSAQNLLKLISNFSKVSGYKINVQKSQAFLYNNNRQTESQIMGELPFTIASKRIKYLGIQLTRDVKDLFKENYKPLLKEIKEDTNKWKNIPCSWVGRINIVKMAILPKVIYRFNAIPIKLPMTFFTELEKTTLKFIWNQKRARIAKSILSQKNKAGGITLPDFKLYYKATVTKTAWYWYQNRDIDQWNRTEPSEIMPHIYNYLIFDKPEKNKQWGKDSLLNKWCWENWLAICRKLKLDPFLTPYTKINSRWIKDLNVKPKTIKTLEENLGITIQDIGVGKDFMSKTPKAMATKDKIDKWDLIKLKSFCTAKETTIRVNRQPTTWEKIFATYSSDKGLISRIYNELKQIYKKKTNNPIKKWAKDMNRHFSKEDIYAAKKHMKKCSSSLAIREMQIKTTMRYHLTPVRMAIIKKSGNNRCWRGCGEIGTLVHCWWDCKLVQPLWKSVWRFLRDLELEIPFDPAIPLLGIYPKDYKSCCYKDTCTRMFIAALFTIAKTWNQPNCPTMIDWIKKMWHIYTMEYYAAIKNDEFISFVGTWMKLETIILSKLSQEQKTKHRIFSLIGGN
SMILES,IC50 [1] [nM],IC50 [2] [nM]
C#C[C@@]1(CO)C=C[C@H](n2cc(C)c(=O)[nH]c2=O)O1,50 to 500,
"C#C[C@@]1(COP(=O)(N[C@@H](C)C(=O)OCc2ccccc2)Oc2ccccc2)C=C[C@H](n2cc(C)c(=O)[nH]c2=O)O1 (mixture of isomers) [Benzyl ((((2R,5R)-2-Ethynyl-5-(5-methyl-2,4-dioxo-3,4-dihydropyrimidin-1(2H)-yl)-2,5-dihydrofuran-2-yl)methoxy)(phenoxy)phosphoryl)-L-alaninate]",50 to 500,
"C#C[C@@]1(COP(=O)(N[C@@H](C)C(=O)OC)Oc2ccccc2)C=C[C@H](n2cc(C)c(=O)[nH]c2=O)O1 (mixture of isomers) [Methyl ((((2R,5R)-2-Ethynyl-5-(5-methyl-2,4-dioxo-3,4-dihydropyrimidin-1(2H)-yl)-2,5-dihydrofuran-2-yl)methoxy)(phenoxy)phosphoryl)-L-alaninate]",> 500,
"C#C[C@@]1(COP(=O)(N[C@@H](C)C(=O)OC)Oc2ccc(Br)cc2)C=C[C@H](n2cc(C)c(=O)[nH]c2=O)O1 (single isomer, unassigned) [P-Diastereomer 1 from Example 2; I-7 or I-8]",50 to 500,
"C#C[C@@]1(COP(=O)(N[C@@H](C)C(=O)OCC(C)(C)C)Oc2cccc3ccccc23)C=C[C@H](n2cc(C)c(=O)[nH]c2=O)O1 (single isomer, unassigned) [P-Diastereomer 1 from Example 2; I-16 or III-1]",50 to 500,50 to 500
"C#C[C@@]1(COP(=O)(NC(C)(C)C(=O)OC(C)C)Oc2ccccc2)C=C[C@H](n2cc(C)c(=O)[nH]c2=O)O1 (single isomer, unassigned) [P-Diastereomer 1 from Example 2; II-22 or II-23]",> 500,
"C#C[C@@]1(COP(=O)(NCc2ccccc2)OCCSC(=O)C(C)(C)CO)C=C[C@H](n2cc(C)c(=O)[nH]c2=O)O1 (single isomer, unassigned) [P-Diastereomer 1 from Example 3; II-1 or II-2]",50 to 500,50 to 500
"C#C[C@@]1(COP(=O)(N[C@@H](C)C(=O)OC)Oc2ccc(Br)cc2)C=C[C@H](n2cc(C)c(=O)[nH]c2=O)O1 (single isomer, unassigned) [P-Diastereomer 2 from Example 2; I-7 or I-8]",,50 to 500
"C#C[C@@]1(COP(=O)(N[C@@H](C)C(=O)OCC(C)(C)C)Oc2cccc3ccccc23)C=C[C@H](n2cc(C)c(=O)[nH]c2=O)O1 (single isomer, unassigned) [P-Diastereomer 2 from Example 2; I-16 or III-1]",50 to 500,≤ 50
"C#C[C@@]1(COP(=O)(NC(C)(C)C(=O)OC(C)C)Oc2ccccc2)C=C[C@H](n2cc(C)c(=O)[nH]c2=O)O1 (single isomer, unassigned) [P-Diastereomer 2 from Example 2; II-22 or II-23]",> 500,
"C#C[C@@]1(COP(=O)(NCc2ccccc2)OCCSC(=O)C(C)(C)CO)C=C[C@H](n2cc(C)c(=O)[nH]c2=O)O1 (single isomer, unassigned) [P-Diastereomer 2 from Example 3; II-1 or II-2]",,50 to 500
"C#C[C@@]1(CO[P@](=O)(N[C@@H](C)C(=O)OC(C)C)Oc2ccccc2)C=C[C@H](n2cc(C)c(=O)[nH]c2=O)O1 [Compound I-1, Isopropyl ((R)-(((2R,5R)-2-Ethynyl-5-(5-methyl-2,4-dioxo-3,4-dihydropyrimidin-1(2H)-yl)-2,5-dihydrofuran-2-yl)methoxy)(phenoxy)phosphoryl)-L-alaninate]",> 500,50 to 500
"C#C[C@@]1(CO[P@@](=O)(N[C@@H](C)C(=O)OC(C)C)Oc2ccccc2)C=C[C@H](n2cc(C)c(=O)[nH]c2=O)O1 [Compound I-2, Isopropyl ((S)-(((2R,5R)-2-Ethynyl-5-(5-methyl-2,4-dioxo-3,4-dihydropyrimidin-1(2H)-yl)-2,5-dihydrofuran-2-yl)methoxy)(phenoxy)phosphoryl)-L-alaninate]",> 500,50 to 500
"C#C[C@@]1(CO[P@](=O)(N[C@@H](C)C(=O)OCC(CC)CC)Oc2ccccc2)C=C[C@H](n2cc(C)c(=O)[nH]c2=O)O1 [Compound I-5, 2-Ethylbutyl ((R)-(((2R,5R)-2-Ethynyl-5-(5-methyl-2,4-dioxo-3,4-dihydropyrimidin-1(2H)-yl)-2,5-dihydrofuran-2-yl)methoxy)(phenoxy)phosphoryl)-L-alaninate]",50 to 500,50 to 500
"C#C[C@@]1(CO[P@@](=O)(N[C@@H](C)C(=O)OCC(CC)CC)Oc2ccccc2)C=C[C@H](n2cc(C)c(=O)[nH]c2=O)O1 [Compound I-6, 2-Ethylbutyl ((S)-(((2R,5R)-2-Ethynyl-5-(5-methyl-2,4-dioxo-3,4-dihydropyrimidin-1(2H)-yl)-2,5-dihydrofuran-2-yl)methoxy)(phenoxy)phosphoryl)-L-alaninate]",50 to 500,50 to 500
"C#C[C@@]1(COP(=O)(OCOC(=O)OC(C)C)OCOC(=O)OC(C)C)C=C[C@H](n2cc(C)c(=O)[nH]c2=O)O1 [IV-1, 1-[(2R,5R)-5-[({di[(isopropoxycarbonyl)oxy]methoxyphosphoryl}oxy)methyl]-5-ethynyl-2H-furan-2-yl]-5-methyl-3H-pyrimidine-2,4-dione]",≤ 50,

# Reference: patent US20250282803A1, “DIDEHYDRO-3'-DEOXY-4'-ETHYNYLTHYMIDINES AND RELATED COMPOUNDS AND THEIR USE IN TREATING MEDICAL CONDITIONS” (ROME Therapeutics, Inc., priority 2022, published 2025)
